“And” between values parts separate entries of the source, which are not always exact repeats. Equal entries are not always repeated. Toxic doses and inconclusive results are not listed.
Test system: L1210 leukemia ip in BDF1 mice, survival T/C
Assay: NCI In Vivo Anticancer Drug Screen. Data for tumor model L1210 Leukemia (intraperitoneal) in B6D2F1 (BDF1) mice
Details: higher = longer survival
Procedure, shortened: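 In this screen, tumor-bearing mice given compound are compared to those given vehicle, and their survival values are reported as a treated-to-control quotient.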

N=c1ccn2c(n1)OC1C(O)C(CO)OC12 (stereo not drawn)
T/C (endpoint: mean survival time, dose: 0.79 mg/kg/injection, schedule: Q03HX024 (ip), vehicle: water): 110 % of control | T/C (endpoint: mean survival time, dose: 1.56 mg/kg/injection, schedule: Q01DX009 (ip), vehicle: water): 103 % of control | T/C (endpoint: mean survival time, dose: 3.13 mg/kg/injection, schedule: Q01DX009 (ip), vehicle: water): 110 % of control | T/C (endpoint: mean survival time, dose: 100.0 mg/kg/injection, schedule: Q04DX003 (ip), vehicle: water): 169 % of control | T/C (endpoint: mean survival time, dose: 118.0 mg/kg/injection, schedule: Q01DX009 (ip), vehicle: clinical formulation): 203 % of control | T/C (endpoint: mean survival time, dose: 118.0 mg/kg/injection, schedule: Q01DX009 (ip), vehicle: saline): 195 % of control | T/C (endpoint: mean survival time, dose: 177.0 mg/kg/injection, schedule: Q01DX009 (ip), vehicle: clinical formulation): 213 % of control | T/C (endpoint: mean survival time, dose: 177.0 mg/kg/injection, schedule: Q01DX009 (ip), vehicle: saline): 230 % of control | T/C (endpoint: mean survival time, dose: 200.0 mg/kg/injection, schedule: Q04DX003 (ip), vehicle: water): 180 % of control | T/C (endpoint: mean survival time, dose: 266.0 mg/kg/injection, schedule: Q01DX009 (ip), vehicle: clinical formulation): 250 % of control | T/C (endpoint: mean survival time, dose: 266.0 mg/kg/injection, schedule: Q01DX009 (ip), vehicle: saline): 258 % of control | T/C (endpoint: mean survival time, dose: 400.0 mg/kg/injection, schedule: Q01DX009 (ip), vehicle: clinical formulation): 254 % of control | T/C (endpoint: mean survival time, dose: 400.0 mg/kg/injection, schedule: Q01DX009 (ip), vehicle: saline): 246 % of control | T/C (endpoint: mean survival time, dose: 400.0 mg/kg/injection, schedule: Q04DX003 (ip), vehicle: water): 215 % of control | T/C (endpoint: mean survival time, dose: 600.0 mg/kg/injection, schedule: Q01DX009 (ip), vehicle: clinical formulation): 101 % of control | T/C (endpoint: mean survival time, dose: 1200.0 mg/kg/injection, schedule: Q01DX001 (ip), vehicle: saline): 158 % of control | T/C (endpoint: mean survival time, dose: 1600.0 mg/kg/injection, schedule: Q01DX001 (ip), vehicle: saline): 154 % of control and 161 % of control and 166 % of control | T/C (endpoint: mean survival time, dose: 2000.0 mg/kg/injection, schedule: Q01DX001 (ip), vehicle: saline): 161 % of control and 170 % of control and 172 % of control | T/C (endpoint: median survival time, dose: 5.0 mg/kg/injection, schedule: Q03HX008 (ip), vehicle: saline): 161 % of control | T/C (endpoint: median survival time, dose: 12.5 mg/kg/injection, schedule: Q01DX009 (ip), vehicle: saline): 157 % of control | T/C (endpoint: median survival time, dose: 25.0 mg/kg/injection, schedule: Q01DX009 (ip), vehicle: saline): 178 % of control | T/C (endpoint: median survival time, dose: 25.0 mg/kg/injection, schedule: Q03HX024 (ip), vehicle: water): 170 % of control and 250 % of control | T/C (endpoint: median survival time, dose: 50.0 mg/kg/injection, schedule: Q01DX009 (ip), vehicle: saline): 184 % of control | T/C (endpoint: median survival time, dose: 50.0 mg/kg/injection, schedule: Q01DX009 (ip), vehicle: steriod suspending solution): 170 % of control | T/C (endpoint: median survival time, dose: 50.0 mg/kg/injection, schedule: Q03HX016 (ip), vehicle: saline): 211 % of control | T/C (endpoint: median survival time, dose: 50.0 mg/kg/injection, schedule: Q03HX024 (ip), vehicle: saline): 255 % of control | T/C (endpoint: median survival time, dose: 50.0 mg/kg/injection, schedule: Q03HX024 (ip), vehicle: water): 205 % of control and 230 % of control | T/C (endpoint: median survival time, dose: 100.0 mg/kg/injection, schedule: Q01DX009 (ip), vehicle: saline): 190 % of control and 205 % of control | T/C (endpoint: median survival time, dose: 100.0 mg/kg/injection, schedule: Q01DX009 (ip), vehicle: steriod suspending solution): 185 % of control | T/C (endpoint: median survival time, dose: 100.0 mg/kg/injection, schedule: Q01DX009 (oral), vehicle: saline): 166 % of control | T/C (endpoint: median survival time, dose: 100.0 mg/kg/injection, schedule: Q03HX008 (ip), vehicle: saline): 155 % of control | T/C (endpoint: median survival time, dose: 100.0 mg/kg/injection, schedule: Q03HX016 (ip), vehicle: saline): 233 % of control | T/C (endpoint: median survival time, dose: 100.0 mg/kg/injection, schedule: Q03HX024 (ip), vehicle: saline): 322 % of control | T/C (endpoint: median survival time, dose: 100.0 mg/kg/injection, schedule: Q03HX024 (ip), vehicle: water): 250 % of control and 270 % of control | T/C (endpoint: median survival time, dose: 100.0 mg/kg/injection, schedule: Q04DX003 (oral), vehicle: water): 111 % of control | T/C (endpoint: median survival time, dose: 108.0 mg/kg/injection, schedule: Q01DX008 (ip), vehicle: water): 179 % of control | T/C (endpoint: median survival time, dose: 120.0 mg/kg/injection, schedule: Q01DX001 (ip), vehicle: water): 166 % of control | T/C (endpoint: median survival time, dose: 160.0 mg/kg/injection, schedule: Q01DX001 (ip), vehicle: water): 166 % of control | T/C (endpoint: median survival time, dose: 180.0 mg/kg/injection, schedule: Q01DX008 (ip), vehicle: water): 182 % of control | T/C (endpoint: median survival time, dose: 200.0 mg/kg/injection, schedule: Q01DX001 (ip), vehicle: saline): 122 % of control | T/C (endpoint: median survival time, dose: 200.0 mg/kg/injection, schedule: Q01DX001 (ip), vehicle: water): 105 % of control | T/C (endpoint: median survival time, dose: 200.0 mg/kg/injection, schedule: Q01DX009 (ip), vehicle: saline): 219 % of control and 222 % of control and 234 % of control | T/C (endpoint: median survival time, dose: 200.0 mg/kg/injection, schedule: Q01DX009 (ip), vehicle: steriod suspending solution): 235 % of control | T/C (endpoint: median survival time, dose: 200.0 mg/kg/injection, schedule: Q01DX009 (oral), vehicle: saline): 188 % of control | T/C (endpoint: median survival time, dose: 200.0 mg/kg/injection, schedule: Q03HX008 (ip), vehicle: saline): 177 % of control | T/C (endpoint: median survival time, dose: 200.0 mg/kg/injection, schedule: Q03HX016 (ip), vehicle: saline): 255 % of control | T/C (endpoint: median survival time, dose: 200.0 mg/kg/injection, schedule: Q03HX024 (oral), vehicle: water): 116 % of control | T/C (endpoint: median survival time, dose: 200.0 mg/kg/injection, schedule: Q04DX003 (ip), vehicle: saline): 177 % of control | T/C (endpoint: median survival time, dose: 200.0 mg/kg/injection, schedule: Q04DX003 (ip), vehicle: water): 160 % of control | T/C (endpoint: median survival time, dose: 216.0 mg/kg/injection, schedule: Q01DX009 (ip), vehicle: water): 100 % of control and 105 % of control | T/C (endpoint: median survival time, dose: 300.0 mg/kg/injection, schedule: Q01DX008 (ip), vehicle: water): 202 % of control | T/C (endpoint: median survival time, dose: 300.0 mg/kg/injection, schedule: Q01DX009 (ip), vehicle: saline): 221 % of control | T/C (endpoint: median survival time, dose: 360.0 mg/kg/injection, schedule: Q01DX009 (ip), vehicle: water): 104 % of control and 111 % of control | T/C (endpoint: median survival time, dose: 400.0 mg/kg/injection, schedule: Q01DX001 (ip), vehicle: water): 100 % of control | T/C (endpoint: median survival time, dose: 400.0 mg/kg/injection, schedule: Q01DX001 (oral), vehicle: water): 120 % of control | T/C (endpoint: median survival time, dose: 400.0 mg/kg/injection, schedule: Q01DX009 (ip), vehicle: saline): 223 % of control and 262 % of control and 311 % of control | T/C (endpoint: median survival time, dose: 400.0 mg/kg/injection, schedule: Q01DX009 (ip), vehicle: steriod suspending solution): 315 % of control | T/C (endpoint: median survival time, dose: 400.0 mg/kg/injection, schedule: Q01DX009 (oral), vehicle: saline): 205 % of control | T/C (endpoint: median survival time, dose: 400.0 mg/kg/injection, schedule: Q03HX008 (ip), vehicle: saline): 188 % of control | T/C (endpoint: median survival time, dose: 400.0 mg/kg/injection, schedule: Q03HX024 (ip), vehicle: saline): 88 % of control | T/C (endpoint: median survival time, dose: 400.0 mg/kg/injection, schedule: Q03HX024 (ip), vehicle: water): 100 % of control | T/C (endpoint: median survival time, dose: 400.0 mg/kg/injection, schedule: Q04DX003 (ip), vehicle: saline): 150 % of control | T/C (endpoint: median survival time, dose: 400.0 mg/kg/injection, schedule: Q04DX003 (ip), vehicle: water): 165 % of control | T/C (endpoint: median survival time, dose: 500.0 mg/kg/injection, schedule: Q01DX008 (ip), vehicle: water): 164 % of control | T/C (endpoint: median survival time, dose: 500.0 mg/kg/injection, schedule: Q01DX009 (ip), vehicle: saline): 211 % of control | T/C (endpoint: median survival time, dose: 600.0 mg/kg/injection, schedule: Q01DX009 (ip), vehicle: saline): 232 % of control | T/C (endpoint: median survival time, dose: 700.0 mg/kg/injection, schedule: Q01DX009 (ip), vehicle: saline): 156 % of control | T/C (endpoint: median survival time, dose: 800.0 mg/kg/injection, schedule: Q01DX001 (ip), vehicle: water): 120 % of control | T/C (endpoint: median survival time, dose: 800.0 mg/kg/injection, schedule: Q01DX009 (ip), vehicle: saline): 94 % of control | T/C (endpoint: median survival time, dose: 800.0 mg/kg/injection, schedule: Q01DX009 (oral), vehicle: saline): 122 % of control | T/C (endpoint: median survival time, dose: 800.0 mg/kg/injection, schedule: Q01DX009 (oral), vehicle: water): 94 % of control | T/C (endpoint: median survival time, dose: 800.0 mg/kg/injection, schedule: Q04DX003 (ip), vehicle: water): 200 % of control | T/C (endpoint: median survival time, dose: 800.0 mg/kg/injection, schedule: Q04DX003 (oral), vehicle: saline): 166 % of control | T/C (endpoint: median survival time, dose: 1600.0 mg/kg/injection, schedule: Q01DX001 (ip), vehicle: saline): 155 % of control | T/C (endpoint: median survival time, dose: 1600.0 mg/kg/injection, schedule: Q01DX001 (ip), vehicle: water): 155 % of control | T/C (endpoint: median survival time, dose: 1600.0 mg/kg/injection, schedule: Q04DX003 (ip), vehicle: water): 100 % of control | T/C (endpoint: median survival time, dose: 1600.0 mg/kg/injection, schedule: Q04DX003 (oral), vehicle: saline): 244 % of control | T/C (endpoint: median survival time, dose: 2000.0 mg/kg/injection, schedule: Q01DX001 (oral), vehicle: water): 150 % of control

CCN(CC)CC(=O)NCC(CC)(CCN1CCCCC1)c1cccc2ccccc12 (stereo not drawn)
T/C (endpoint: mean survival time, dose: 50.0 mg/kg/injection, schedule: Q04DX003 (ip), vehicle: saline): 92 % of control | T/C (endpoint: mean survival time, dose: 100.0 mg/kg/injection, schedule: Q01DX009 (ip), vehicle: saline): 114 % of control | T/C (endpoint: mean survival time, dose: 100.0 mg/kg/injection, schedule: Q04DX003 (ip), vehicle: saline): 102 % of control | T/C (endpoint: mean survival time, dose: 200.0 mg/kg/injection, schedule: Q01DX009 (ip), vehicle: saline): 102 % of control | T/C (endpoint: mean survival time, dose: 200.0 mg/kg/injection, schedule: Q04DX003 (ip), vehicle: saline): 97 % of control
